Paper PMC6925188, “PBRM1 acts as a p53 lysine-acetylation reader to suppress renal tumor growth” (Nature Communications, 2019)
Marks after values point to notes of the source that are not given here.

Key:
Format in all cases: cell-based
[1] = test system: p53 binding to CDKN1A; experiment: ChIP-qPCR, p53 antibody, CDKN1A gene, RCC4 cells; design: p53 ChIP at CDKN1A-intron / p53 ChIP at CDKN1A-RE1 / p53 ChIP at CDKN1A-TSS: unit not given here; conditions: 24 h; for p53 ChIP at CDKN1A-RE1 / p53 ChIP at CDKN1A-TSS / p53 ChIP at CDKN1A-intron: 100 μM
Method: (§1) Lysates were analyzed by immunoblots. c RCC4 cells with or without p53 KO were transfected with vector or Flag-PBRM1 at the indicated amounts. […] Cells were harvested for RT-qPCR (g) or ChIP followed by qPCR (h). […] Representative data is shown in i. Quantification of cell cycle phase is shown in j. Source data are provided as a Source Data file.
(§2) ChIP assays were performed with the Pierce Agarose ChIP Kit (26156, Thermo Scientific) according to the manufacturer’s instructions with minor revisions. In brief, samples were crosslinked with 1% paraformaldehyde and halted by 125 mM glycine. After washing twice with ice-cold PBS, cells were harvested and suspended in Lysis Buffer 1 and incubated on ice for 10 min. 1 × 10^7 nuclei were resuspended in 500 μl MNase Digestion Buffer containing 6.25 U Micrococcal Nuclease and incubated at 37 °C for 15 min. After the reaction was stopped, nuclei were pelleted by centrifugation and resuspended in 250 μl Lysis Buffer 2. Nuclei were sonicated at 10% amplitude for 10 s twice and incubated on ice for 30 min. After centrifugation, 50 μl supernatant containing the digested chromatin from 2 × 10^6 nuclei was diluted in 1× IP Dilution Buffer and incubated with antibodies (normal rabbit IgG for control, 1 μg FL393 + 1 μg DO-1 for p53 or 2 μg Flag M2 for Flag-PBRM1) overnight at 4 °C. […] of ChIP Grade Protein A/G Plus Agarose was added and incubated for 1 h at 4 °C. The agarose resins were washed once with IP Wash Buffer 1, twice with IP Wash Buffer 2 and once with IP Wash Buffer 3. 150 μl 1× IP Elution Buffer was added to the washed resin and incubated at 65 °C for 30 min with shaking. The eluate was treated with Proteinase K and DNA was extracted with columns provided in the kit.

[2] = test system: PBRM1 binding to CDKN1A; experiment: ChIP-qPCR, Flag antibody (Flag-PBRM1), CDKN1A gene, RCC4 cells; design: unit not given here; conditions: 100 μM, 24 h
Method: as §1, §2

[3] = test system: RCC4 cells; experiment: RT-qPCR of p53 targets, RCC4 cells; design: CDKN1A expression / MDM2 expression / GADD45A expression / PUMA expression / NOXA expression: reference not given here; conditions: 24 h; for CDKN1A expression / GADD45A expression / MDM2 expression / NOXA expression / PUMA expression: 100 μM
Method: as §1
Total RNA was extracted from cells using the RNeasy Plus Mini Kit (74136, Qiagen), and the concentration was measured using the NanoDrop ND-1000 system (Thermo Scientific). Reverse transcription was performed using the First Strand cDNA Synthesis Kit (NP100042, Origen) with 0.5 µg total RNA. Real-time PCR was performed with Maxima SYBR Green qPCR Master Mix (K0253, Thermo Scientific) using the Roche LightCycler 480. […] GAPDH was used as an internal control. Data are shown as mean ± SEM for three independent experiments.

COc1cc([C@@H]2c3cc4c(cc3[C@@H](O[C@@H]3O[C@@H]5CO[C@@H](C)O[C@H]5[C@H](O)[C@H]3O)[C@H]3COC(=O)[C@H]23)OCO4)cc(OC)c1O [Etoposide]
p53 binding to CDKN1A RE1 with PBRM1 ([1]; 100 μM etoposide, RCC4): significantly enhanced by wild-type but not BD4* mutant PBRM1
p53 ChIP at CDKN1A-RE1 ([1]; RCC4-GFP, assay 1): 1.555
p53 ChIP at CDKN1A-TSS ([1]; RCC4-GFP, assay 1): 0.1782
p53 ChIP at CDKN1A-intron ([1]; RCC4-GFP, assay 1): 0.077
p53 ChIP at CDKN1A-RE1 ([1]; RCC4-GFP, assay 2): 1.8621
p53 ChIP at CDKN1A-TSS ([1]; RCC4-GFP, assay 2): 0.1891
p53 ChIP at CDKN1A-intron ([1]; RCC4-GFP, assay 2): 0.0504
p53 ChIP at CDKN1A-RE1 ([1]; RCC4-GFP, assay 3): 1.9888
p53 ChIP at CDKN1A-TSS ([1]; RCC4-GFP, assay 3): 0.2677
p53 ChIP at CDKN1A-intron ([1]; RCC4-GFP, assay 3): 0.06
p53 ChIP at CDKN1A-RE1 ([1]; RCC4-PBRM1-BD4*, assay 1): 1.5332
p53 ChIP at CDKN1A-TSS ([1]; RCC4-PBRM1-BD4*, assay 1): 0.1764
p53 ChIP at CDKN1A-intron ([1]; RCC4-PBRM1-BD4*, assay 1): 0.0801
p53 ChIP at CDKN1A-RE1 ([1]; RCC4-PBRM1-BD4*, assay 2): 1.7924
p53 ChIP at CDKN1A-TSS ([1]; RCC4-PBRM1-BD4*, assay 2): 0.1865
p53 ChIP at CDKN1A-intron ([1]; RCC4-PBRM1-BD4*, assay 2): 0.0517
p53 ChIP at CDKN1A-RE1 ([1]; RCC4-PBRM1-BD4*, assay 3): 1.8343
p53 ChIP at CDKN1A-TSS ([1]; RCC4-PBRM1-BD4*, assay 3): 0.221
p53 ChIP at CDKN1A-intron ([1]; RCC4-PBRM1-BD4*, assay 3): 0.0545
p53 ChIP at CDKN1A-RE1 ([1]; RCC4-PBRM1, assay 1): 1.8428
p53 ChIP at CDKN1A-TSS ([1]; RCC4-PBRM1, assay 1): 0.2655
p53 ChIP at CDKN1A-intron ([1]; RCC4-PBRM1, assay 1): 0.0601
p53 ChIP at CDKN1A-RE1 ([1]; RCC4-PBRM1, assay 2): 2.4571
p53 ChIP at CDKN1A-TSS ([1]; RCC4-PBRM1, assay 2): 0.2336
p53 ChIP at CDKN1A-intron ([1]; RCC4-PBRM1, assay 2): 0.0759
p53 ChIP at CDKN1A-RE1 ([1]; RCC4-PBRM1, assay 3): 2.4942
p53 ChIP at CDKN1A-TSS ([1]; RCC4-PBRM1, assay 3): 0.2293
p53 ChIP at CDKN1A-intron ([1]; RCC4-PBRM1, assay 3): 0.0609
Flag ChIP at CDKN1A-RE1 ([2]; RCC4-GFP, assay 1): 0.0131
Flag ChIP at CDKN1A-TSS ([2]; RCC4-GFP, assay 1): 0.013
Flag ChIP at CDKN1A-intron ([2]; RCC4-GFP, assay 1): 0.0279
Flag ChIP at CDKN1A-RE1 ([2]; RCC4-GFP, assay 2): 0.0381
Flag ChIP at CDKN1A-TSS ([2]; RCC4-GFP, assay 2): 0.0086
Flag ChIP at CDKN1A-intron ([2]; RCC4-GFP, assay 2): 0.0296
Flag ChIP at CDKN1A-RE1 ([2]; RCC4-GFP, assay 3): 0.0109
Flag ChIP at CDKN1A-TSS ([2]; RCC4-GFP, assay 3): 0.0269
Flag ChIP at CDKN1A-intron ([2]; RCC4-GFP, assay 3): 0.0971
Flag ChIP at CDKN1A-RE1 ([2]; RCC4-PBRM1-BD4*, assay 1): 0.1332
Flag ChIP at CDKN1A-TSS ([2]; RCC4-PBRM1-BD4*, assay 1): 0.204
Flag ChIP at CDKN1A-intron ([2]; RCC4-PBRM1-BD4*, assay 1): 0.0594
Flag ChIP at CDKN1A-RE1 ([2]; RCC4-PBRM1-BD4*, assay 2): 0.168
Flag ChIP at CDKN1A-TSS ([2]; RCC4-PBRM1-BD4*, assay 2): 0.1814
Flag ChIP at CDKN1A-intron ([2]; RCC4-PBRM1-BD4*, assay 2): 0.0845
Flag ChIP at CDKN1A-RE1 ([2]; RCC4-PBRM1-BD4*, assay 3): 0.1906
Flag ChIP at CDKN1A-TSS ([2]; RCC4-PBRM1-BD4*, assay 3): 0.171
Flag ChIP at CDKN1A-intron ([2]; RCC4-PBRM1-BD4*, assay 3): 0.0675
Flag ChIP at CDKN1A-RE1 ([2]; RCC4-PBRM1, assay 1): 0.118
Flag ChIP at CDKN1A-TSS ([2]; RCC4-PBRM1, assay 1): 0.1053
Flag ChIP at CDKN1A-intron ([2]; RCC4-PBRM1, assay 1): 0.1192
Flag ChIP at CDKN1A-RE1 ([2]; RCC4-PBRM1, assay 2): 0.114
Flag ChIP at CDKN1A-TSS ([2]; RCC4-PBRM1, assay 2): 0.1575
Flag ChIP at CDKN1A-intron ([2]; RCC4-PBRM1, assay 2): 0.074
Flag ChIP at CDKN1A-RE1 ([2]; RCC4-PBRM1, assay 3): 0.1263
Flag ChIP at CDKN1A-TSS ([2]; RCC4-PBRM1, assay 3): 0.1136
Flag ChIP at CDKN1A-intron ([2]; RCC4-PBRM1, assay 3): 0.066
expression of p53 downstream targets with PBRM1 restoration ([3]; 100 μM etoposide, RCC4): up-regulated by restoration of PBRM1 but not PBRM1 BD4*
CDKN1A expression ([3]; RCC4-GFP, assay 1): 49.6546
GADD45A expression ([3]; RCC4-GFP, assay 1): 6.5687
MDM2 expression ([3]; RCC4-GFP, assay 1): 12.9102
NOXA expression ([3]; RCC4-GFP, assay 1): 7.6934
PUMA expression ([3]; RCC4-GFP, assay 1): 10.0905
CDKN1A expression ([3]; RCC4-GFP, assay 2): 44.3116
GADD45A expression ([3]; RCC4-GFP, assay 2): 5.0617
MDM2 expression ([3]; RCC4-GFP, assay 2): 12.821
NOXA expression ([3]; RCC4-GFP, assay 2): 9.2403
PUMA expression ([3]; RCC4-GFP, assay 2): 12.0208
CDKN1A expression ([3]; RCC4-GFP, assay 3): 55.0506
GADD45A expression ([3]; RCC4-GFP, assay 3): 5.7956
MDM2 expression ([3]; RCC4-GFP, assay 3): 12.4332
NOXA expression ([3]; RCC4-GFP, assay 3): 9.8148
PUMA expression ([3]; RCC4-GFP, assay 3): 9.8829
CDKN1A expression ([3]; RCC4-PBRM1-BD4*, assay 1): 45.9041
GADD45A expression ([3]; RCC4-PBRM1-BD4*, assay 1): 6.7644
MDM2 expression ([3]; RCC4-PBRM1-BD4*, assay 1): 11.4101
NOXA expression ([3]; RCC4-PBRM1-BD4*, assay 1): 9.833
PUMA expression ([3]; RCC4-PBRM1-BD4*, assay 1): 10.713
CDKN1A expression ([3]; RCC4-PBRM1-BD4*, assay 2): 43.4526
GADD45A expression ([3]; RCC4-PBRM1-BD4*, assay 2): 6.5588
MDM2 expression ([3]; RCC4-PBRM1-BD4*, assay 2): 13.589
NOXA expression ([3]; RCC4-PBRM1-BD4*, assay 2): 9.0815
PUMA expression ([3]; RCC4-PBRM1-BD4*, assay 2): 12.1902
CDKN1A expression ([3]; RCC4-PBRM1-BD4*, assay 3): 51.1258
GADD45A expression ([3]; RCC4-PBRM1-BD4*, assay 3): 6.6252
MDM2 expression ([3]; RCC4-PBRM1-BD4*, assay 3): 12.0244
NOXA expression ([3]; RCC4-PBRM1-BD4*, assay 3): 9.5044
PUMA expression ([3]; RCC4-PBRM1-BD4*, assay 3): 12.2164
CDKN1A expression ([3]; RCC4-PBRM1, assay 1): 70.754
GADD45A expression ([3]; RCC4-PBRM1, assay 1): 7.8588
MDM2 expression ([3]; RCC4-PBRM1, assay 1): 16.2786
NOXA expression ([3]; RCC4-PBRM1, assay 1): 11.5749
PUMA expression ([3]; RCC4-PBRM1, assay 1): 13.0108
CDKN1A expression ([3]; RCC4-PBRM1, assay 2): 72.9408
GADD45A expression ([3]; RCC4-PBRM1, assay 2): 6.8115
MDM2 expression ([3]; RCC4-PBRM1, assay 2): 15.8174
NOXA expression ([3]; RCC4-PBRM1, assay 2): 11.4155
PUMA expression ([3]; RCC4-PBRM1, assay 2): 15.9071
CDKN1A expression ([3]; RCC4-PBRM1, assay 3): 96.454
GADD45A expression ([3]; RCC4-PBRM1, assay 3): 7.8052
MDM2 expression ([3]; RCC4-PBRM1, assay 3): 16.0682
NOXA expression ([3]; RCC4-PBRM1, assay 3): 13.296
PUMA expression ([3]; RCC4-PBRM1, assay 3): 14.8041
